This is an account of results in article PMC11430712, “The Endocannabinoid Peptide RVD-Hemopressin Is a TRPV1 Channel Blocker” (Biomolecules, 2024).

Data set [1] has as its target T1, human TRPV1 channel (Homo sapiens, UniProt Q8NER1).
T1 construct: host or cells: HEK293
The data set can be described thus: Whole-cell voltage-clamp recording of TRPV1 currents, HEK293 cells with human TRPV1-GFP. Type of data set: cell-based. The settings on record: 1 µM Cap; voltage ramp -80 to 80 mV, +80 mV; n: 7; **** p < 0.0001; room temperature. As for the experimental part:
(§1) Dr. Alejandro Maureira, Universidad Católica del Maule, Chile, generously provided HEK293 cells. The cells were cultured in T75 flasks (Corning Inc., Corning, NY, USA) in a humidified atmosphere at 37 °C with 5% CO2 in Dulbecco’s Modified Eagle Medium (DMEM) with high glucose (Cytiva, Marlborough, MA, USA), supplemented with 10% fetal bovine serum (Cytiva, Marlborough, MA, USA) and a mixture of 100 IU/mL penicillin and 100 µg/mL streptomycin (Corning Inc., Corning, NY, USA) in a CO2CELL incubator (MMM Group, Munich, Germany). This procedure was used to maintain the cells for all of the experiments.
(§2) HEK293 cells were transfected with the human TRPV1 channel coupled to GFP in its C-terminus (TRPV1-GFP, catalog #: RG217653, Origene, Rockville, MD, USA). […] Transfections were conducted using Lipofectamine 3000 (Invitrogen, Waltham, MA, USA), according to the manufacturer’s instructions. Experimental protocols were performed 24 h post-transfection.
Untransfected and transfected HEK293 cells with the human TRPV1-GFP were recorded using a whole-cell voltage clamp. Cells were cultured in 15 mm round coverslips pretreated with 0.1 mg/mL poly-L-lysine (Gibco, Billings, MT, USA) and transfected with TRPV1-GFP plasmid. TRPV1-GFP-positive cells were identified using a 405 nm LED light in a Nikon Eclipse Ts2 inverted microscope. Borosilicate pipettes (nº 1B150F-4, World Precision Instruments, Sarasota, FL, USA) of 2.8’5 MΩ were used. Pipettes were pulled with a P-97 Micropipette Puller (Sutter Instruments, Novato, CA, USA). The extracellular solution contained (in mM) 140 NaCl, 5 KCl, 2 CaCl2, 1 MgCl2, 10 HEPES, and 6 glucose at pH 7.4. The internal solution contained (in mM) 140 CsCl, 4 MgCl2, 10 EGTA, and 10 HEPES-CsOH at pH 7.3. All the experiments were recorded using a HEKA EPC9 amplifier. The holding potential was −80 mV. A 500 ms voltage ramp from −80 to 80 mV was applied to record TRPV1 currents. The sample frequency was 50 kHz, and the signals were filtered at 2.9 kHz using PatchMaster software. Data were analyzed using Clampfit v.7 software (Molecular Devices, San Jose, CA, USA). The extracellular solution and ligands were administered using a VC-8 perfusion system (~2 mL/s, Warner Instruments, Holliston, MA, USA). We used capsaicin (Cayman Chemicals, nº 92350), SB366791 (nº 11019, Cayman Chemicals, Ann Arbor, MI, USA), and RVD-Hp (Synbio Technologies, Monmouth Junction, NJ, USA). We used dimethyl sulfoxide (DMSO, Sigma-Aldrich, St. Louis, MO, USA) and untransfected cells as controls. Electrophysiological recordings were performed at room temperature.
(§3) The data were analyzed and plotted using GraphPad software v10.0.2. We used the Shapiro–Wilk test to determine the data distribution. […] Statistically significant values were considered when p values were * p < 0.05, ** p < 0.01, *** p < 0.001, and **** p < 0.0001.

Data set [2] concerns untransfected HEK293 cells. The data set can be described thus: Whole-cell voltage-clamp recording, untransfected HEK293 cells. Type of data set: cell-based. The settings on record: 1 µM Cap; voltage ramp -80 to 80 mV; room temperature. On the procedure: as §1
Untransfected and transfected HEK293 cells with the human TRPV1-GFP were recorded using a whole-cell voltage clamp. Cells were cultured in 15 mm round coverslips pretreated with 0.1 mg/mL poly-L-lysine (Gibco, Billings, MT, USA) and transfected with TRPV1-GFP plasmid. TRPV1-GFP-positive cells were identified using a 405 nm LED light in a Nikon Eclipse Ts2 inverted microscope. Borosilicate pipettes (nº 1B150F-4, World Precision Instruments, Sarasota, FL, USA) of 2.8’5 MΩ were used. Pipettes were pulled with a P-97 Micropipette Puller (Sutter Instruments, Novato, CA, USA). […] All the experiments were recorded using a HEKA EPC9 amplifier. […] Data were analyzed using Clampfit v.7 software (Molecular Devices, San Jose, CA, USA). […]
The data were analyzed and plotted using GraphPad software v10.0.2. […]

For data set [3] the following is noted: cited from earlier work. The text has this: Capsaicin creams and patches have been used in the treatment of muscle pain, neuropathic pain, arthritis, and migraines. […] CNTX-4975 has been developed as a treatment option for pain in individuals with osteoarthritis.
For data set [4], the system named is HEK293-untransfected cells. The data set can be described thus: Calcium imaging (Fura Red-AM), untransfected HEK293 cells. Type of data set: cell-based. As to conditions: 1 µM Cap, confocal, pH 7.4, room temperature, n: 26. As for the experimental part:
Dr. Alejandro Maureira, Universidad Católica del Maule, Chile, generously provided HEK293 cells. The cells were cultured in T75 flasks (Corning Inc., Corning, NY, USA) in a humidified atmosphere at 37 °C with 5% CO2 in Dulbecco's Modified Eagle Medium (DMEM) with high glucose (Cytiva, Marlborough, MA, USA), supplemented with 10% fetal bovine serum (Cytiva, Marlborough, MA, USA) and a mixture of 100 IU/mL penicillin and 100 μg/mL streptomycin (Corning Inc., Corning, NY, USA) in a CO2CELL incubator (MMM Group, Munich, Germany). This procedure was used to maintain the cells for all of the experiments. […] Then, the cells were washed and cultured during the experiment with the extracellular solution containing (in mM) 140 NaCl, 5 KCl, 2 CaCl2, 1 MgCl2, 10 HEPES, and 6 glucose, with pH adjusted to 7.4 with NaOH [13]. Calcium images were obtained every 3 s for 30 min using Leica Stellaris 5 spectral confocal microscopy. […] Fura Red emissions in bound and unbound states were acquired around their peaks at 610 nm and 670 nm, respectively. The bound and unbound fluorescence of Fura Red-AM was acquired using Leica LAS X v.4.3.0.24308 software. The Fura Red-Am bound and unbound ratio was calculated (405 nm/488 nm) and plotted. […] The data were analyzed and plotted using GraphPad software v10.0.2. […]

The target in data set [5] is T1, human TRPV1 channel. The data set can be described thus: Calcium imaging (Fura Red-AM), HEK293 cells transfected with hTRPV1-GFP. In kind it is cell-based. As to conditions: 1 µM Cap; hTRPV1-GFP HEK293; pH 7.4, room temperature; n: 58; vs DMSO **** p < 0.0001. On the procedure: as §1, §2, §3
The subject of data set [6] is TRPV1 channel. More on the design: method as in 4 sources, ref [12]; anandamide and 2-AG ref [13],[14],[15],[16] ||| ref [88],[89] = [88]; PMID 27281200; doi:10.1038/nature17964; 88. Gao Y. Cao E. Julius D. Cheng Y. TRPV1 structures in nanodiscs reveal mechanisms of ligand and lipid action Nature 2016 534 347 351 10.1038/nature17964 27281200 PMC4911334 || [89]; PMID 37117175; doi:10.1038/s41467-023-38162-9; 89. Neuberger A. Oda M. Nikolaev Y.A. Nadezhdin K.D. Gracheva E.O. Bagriantsev S.N. Sobolevsky A.I. Human TRPV1 structure and inhibition by the analgesic SB-366791 Nat. Commun. 2023 14 2451 10.1038/s4 ||| ref [90] = [90]; PMID 38698206; doi:10.1038/s41594-024-01299-2; 90. Arnold W.R. Mancino A. Moss F.R. Frost A. Julius D. Cheng Y. Structural basis of TRPV1 modulation by endogenous bioactive lipids Nat. Struct. Mol. Biol. 2024 1 9 10.1038/s41594-024-01299-2 3869820 ||| ref [67] = [67]; PMID 29117570; doi:10.1016/j.celrep.2017.10.063; 67. Nersesyan Y. Demirkhanyan L. Cabezas-Bratesco D. Oakes V. Kusuda R. Dawson T. Sun X. Cao C. Cohen A.M. Chelluboina B. Oxytocin Modulates Nociception as an Agonist of Pain-Sensing TRPV1 Cell Rep. 2. As to conditions: cited from earlier work. The text has this: The transient receptor potential (TRP) channels family involves several subfamilies, including the vanilloid (TRPVs) group. TRPV1, a member of the TRPV subfamily, is a non-selective cationic homotetramer channel. It is known to be activated by various stimuli, including temperature, capsaicin (the principal compound in chili peppers), and endocannabinoids such as anandamide (AEA) and 2-arachidonoylglycerol (2-AG). The TRPV1 channel protein is found in the central (CNS) and peripheral nervous system (PNS). In the CNS, TRPV1 is expressed in the prefrontal cort ... || Molecular dynamics (MD) simulations allow studying protein dynamics at an atomic level under physiological conditions, enhancing our understanding of various proteins, including ion channels like TRPV1 [82]. These simulations provide insight into their function, conformational changes, and interactions with different ligands.

Data set [7] relates to thermal hyperalgesia. The settings on record: capsazepine administration; ref [12],[32],[33],[34]; cited from earlier work.

T1 sequence (Q8NER1 whole entry): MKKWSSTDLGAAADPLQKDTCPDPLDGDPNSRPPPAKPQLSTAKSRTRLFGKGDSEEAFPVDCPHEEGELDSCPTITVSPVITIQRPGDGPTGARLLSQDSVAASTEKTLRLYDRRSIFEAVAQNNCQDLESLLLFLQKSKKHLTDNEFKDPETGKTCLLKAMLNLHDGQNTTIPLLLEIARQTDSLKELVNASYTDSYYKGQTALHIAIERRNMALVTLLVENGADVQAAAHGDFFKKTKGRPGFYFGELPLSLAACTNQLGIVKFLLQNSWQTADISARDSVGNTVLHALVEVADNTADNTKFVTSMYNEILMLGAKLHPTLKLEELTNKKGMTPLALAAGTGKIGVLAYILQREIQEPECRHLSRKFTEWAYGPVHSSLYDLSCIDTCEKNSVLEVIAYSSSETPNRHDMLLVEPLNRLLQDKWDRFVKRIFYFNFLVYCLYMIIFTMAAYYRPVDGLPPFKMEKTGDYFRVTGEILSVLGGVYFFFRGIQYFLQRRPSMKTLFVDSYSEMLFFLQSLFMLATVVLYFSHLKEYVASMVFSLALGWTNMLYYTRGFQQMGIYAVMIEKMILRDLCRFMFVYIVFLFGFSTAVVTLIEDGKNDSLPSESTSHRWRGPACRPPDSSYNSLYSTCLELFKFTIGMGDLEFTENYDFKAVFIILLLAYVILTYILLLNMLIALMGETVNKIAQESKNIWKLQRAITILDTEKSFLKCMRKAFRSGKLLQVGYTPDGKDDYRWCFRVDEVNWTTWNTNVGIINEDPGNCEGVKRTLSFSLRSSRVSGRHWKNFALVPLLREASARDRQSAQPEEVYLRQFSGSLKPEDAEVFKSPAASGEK

In the case of `COc1cc(CNC(=O)CCCC/C=C/C(C)C)ccc1O` [capsaicin], in data set [1], the “Cap-induced TRPV1 currents” value is recorded as “showed Cap-induced currents”. Besides, the “TRPV1 currents in untransfected cells” value in data set [2] was “did not observe TRPV1 currents”. For the same compound, in data set [3], the “Efficacy and bioavailability in vivo” value is “limited efficacy and bioavailability in vivo”; the Water solubility entry is on record as “poor water solubility”. In addition, in data set [3] (oral administration, ref [98]), the Side effects entry was “irritation, orofacial pain, and gastric ulcers”. Further, the “Intracellular Ca^2+ concentration (Fura Red ratio 405 nm/488 nm) in untransfected cells” value in data set [4] is reported as “did not induce an increase in intracellular Ca^2+ concentration”. For the same compound, in data set [5], the “Intracellular Ca^2+ concentration (Fura Red ratio 405 nm/488 nm), agonist response” value is “produced an increase in intracellular Ca^2+ concentration”. For the same compound, the TRPV1 activation result in data set [6] (capsaicin ref [12], anandamide and 2-AG ref [13],[14],[15],[16]) is on record as “activated”.

As to `Oc1cc2c(cc1O)CN(C(=S)NCCc1ccc(Cl)cc1)CCC2` [capsazepine], the Thermal hyperalgesia result in data set [7] is “reduces thermal hyperalgesia”. In data set [6] (requiring four molecules to induce channel closure, ref [88],[89]), the “TRPV1 binding mode of antagonists” value was “bind to the vanilloid pocket and compete with capsaicin”.
